In patent publication US4022909A, “Method of inhibiting the growth of bacteria using quaternary ammonium compounds” (IMC Chemical Group, Inc., priority 1976, dated 1977):

What was measured:
Staphylococcus aureus = assay: streak plate test, Inhibition Endpoint, Staphylococcus aureus; type: cell-based; conditions: Gram +, lower figure allows growth, higher figure inhibits growth
Streptococcus fecalis = assay: streak plate test, Inhibition Endpoint, Streptococcus fecalis; type: cell-based; conditions: Gram +, lower figure allows growth, higher figure inhibits growth
[1] = tested on: Streptococcus hemolyticus; assay: streak plate test, Inhibition Endpoint, Streptococcus hemolyticus; type: cell-based; conditions: Streptococcus pyogenes, Gram +, lower figure allows growth, higher figure inhibits growth
Escherichia coli = assay: streak plate test, Inhibition Endpoint, Escherichia coli; type: cell-based; conditions: Gram -, lower figure allows growth, higher figure inhibits growth
[2] = tested on: Pasteurella pseudotuberculosis; assay: microbe, parasite or virus in culture; type: cell-based; conditions: Yersinia pseudotuberculosis, read-out: Inhibition Endpoint
Pseudomonas auriginosa = assay: streak plate test, Inhibition Endpoint, Pseudomonas auriginosa; type: cell-based; conditions: Gram -, lower figure allows growth, higher figure inhibits growth
Shigella dysenteriae = assay: streak plate test, Inhibition Endpoint, Shigella dysenteriae; type: cell-based; conditions: read-out: Inhibition Endpoint
Mycobacterium ranae = assay: streak plate test, Inhibition Endpoint, Mycobacterium ranae; type: cell-based; conditions: Acid fast, lower figure allows growth, higher figure inhibits growth
[3] = acute oral toxicity in mice; conditions: mouse, in vivo, po
mice = assay: acute oral toxicity in mice; conditions: oral administration, mice
fungi = assay: antifungal activity by the streak plate test (in words); type: cell-based
Procedure: (§1) The compound was tested for antibacterial and antifungal activity by the streak plate test, which is known in the art. The test substance was incorporated into several portions of an agar medium at several known concentrations and the mixtures were placed in Petri dishes. Then streaks of test organisms were applied to the surface of the medium, the dishes were incubated under growth-promoting conditions, and then examined for growth of organisms. The results are reported as the Inhibition End-Point Range, the lower figure signifying a concentration that allows growth and the higher figure being a concentration that inhibits growth.

Gaffkya tetragena = assay: streak plate test, Inhibition Endpoint, Gaffkya tetragena; type: cell-based; conditions: Gram +, lower figure allows growth, higher figure inhibits growth
Micrococcus flavus = assay: streak plate test, Inhibition Endpoint, Micrococcus flavus; type: cell-based; conditions: Gram +, lower figure allows growth, higher figure inhibits growth
bacteria = assay: antibacterial activity by the streak plate test (in words); type: cell-based
Procedure: as §1

Structure (SMILES) | MIC (Staphylococcus aureus) | MIC (Streptococcus fecalis) | MIC [1] | MIC (Escherichia coli) | MIC [2] | MIC (Pseudomonas auriginosa) | MIC (Shigella dysenteriae) | MIC (Mycobacterium ranae) | LD50 [3] | LD0 (mice) | LD100 (mice) | activity against fungi (fungi) | MIC (Gaffkya tetragena) | MIC (Micrococcus flavus) | antibacterial activity (bacteria)
CCCCCCCC(=O)OCC(C)(C)[N+](C)(C)C.[I-] [Example 4, (2-octanoyloxy-1,1-dimethylethyl)trimethylammonium iodide] | 100 to 500 µg/mL | > 1000 µg/mL | > 1000 µg/mL | 500 to 1000 µg/mL | 100 to 500 µg/mL | > 1000 µg/mL | > 1000 µg/mL | 100 to 500 µg/mL | 1160 mg/kg | 800 mg/kg | 1700 mg/kg |  |  |  | 
CCCCCCCCCCCCCCCC(=O)OCC(C)(C)[N+](C)(C)C.[I-] [Example 3, (2-palmitoyloxy-1,1-dimethylethyl)-trimethylammonium iodide] | 1 to 5 µg/mL | 1 to 5 µg/mL | 1 to 5 µg/mL | > 1000 µg/mL | 100 to 500 µg/mL | > 1000 µg/mL | 50 to 100 µg/mL | 50 to 100 µg/mL | 1490 mg/kg | 800 mg/kg | 3200 mg/kg | only slightly active against fungi |  |  | 
CCCCCCCCCCCCCC(=O)OCC(C)(C)[N+](C)(C)C.[I-] [Example 1, (2-myristoyloxy-1,1-dimethylethyl)-trimethylammonium iodide] | 1 to 5 µg/mL | 1 to 5 µg/mL | 1 to 5 µg/mL | 100 to 500 µg/mL | 1 to 5 µg/mL | > 1000 µg/mL | 5 to 10 µg/mL | 1 to 5 µg/mL | 1000 mg/kg | 600 mg/kg | 2000 mg/kg |  | 1 to 5 µg/mL | 0.1 to 0.5 µg/mL | powerful antibacterial activity
CCCCCCCCCCCC(=O)OCC(C)(C)[N+](C)(C)C.[I-] [Example 2, (2-lauroyloxy-1,1-dimethylethyl)-trimethylammonium iodide] | 1 to 5 µg/mL | 5 to 10 µg/mL | 5 to 10 µg/mL | 100 to 500 µg/mL | 5 to 10 µg/mL | 500 to 1000 µg/mL | 10 to 50 µg/mL | 1 to 50 µg/mL | 900 mg/kg | 500 mg/kg | 1700 mg/kg | only slight activity against fungi |  |  | 
